Results taken from article PMC6199744, “Development of Chemical Proteomics for the Folateome and Analysis of the Kinetoplastid Folateome” (ACS Infectious Diseases, 2018).
Where two headings read alike, the source gives them in different places.

Key:
Assay type in all cases: binding
[1] = biological target: T1, HeLa cell extract proteins (Homo sapiens, UniProt Q96P70)
T1 construct: endogenous in cells; host or cells: HeLa cell extract

[2] = biological target: T2, HeLa cell extract proteins (Homo sapiens, UniProt P63244)
T2 construct: endogenous in cells; host or cells: HeLa cell extract

[3] = biological target: T3, HeLa cell extract proteins (Homo sapiens, UniProt P34897)
T3 construct: endogenous in cells; host or cells: HeLa cell extract
T3 sequence (P34897 30-504): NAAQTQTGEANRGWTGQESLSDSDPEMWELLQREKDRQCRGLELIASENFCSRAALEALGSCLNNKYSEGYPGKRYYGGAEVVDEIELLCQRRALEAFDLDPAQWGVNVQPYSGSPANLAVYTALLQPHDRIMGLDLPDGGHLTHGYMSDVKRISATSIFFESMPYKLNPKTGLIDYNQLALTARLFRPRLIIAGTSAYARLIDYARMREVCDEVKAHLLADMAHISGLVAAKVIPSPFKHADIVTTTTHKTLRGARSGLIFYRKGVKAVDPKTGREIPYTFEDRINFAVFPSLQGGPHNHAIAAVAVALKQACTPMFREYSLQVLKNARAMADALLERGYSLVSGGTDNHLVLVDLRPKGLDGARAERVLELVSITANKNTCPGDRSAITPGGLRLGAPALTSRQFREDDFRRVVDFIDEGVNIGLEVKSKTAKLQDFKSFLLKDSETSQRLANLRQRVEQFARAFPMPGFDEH

[4] = biological target: T4, HeLa cell extract proteins (Homo sapiens, UniProt Q03519)
T4 construct: endogenous in cells; host or cells: HeLa cell extract
T4 sequence (Q03519 1-686): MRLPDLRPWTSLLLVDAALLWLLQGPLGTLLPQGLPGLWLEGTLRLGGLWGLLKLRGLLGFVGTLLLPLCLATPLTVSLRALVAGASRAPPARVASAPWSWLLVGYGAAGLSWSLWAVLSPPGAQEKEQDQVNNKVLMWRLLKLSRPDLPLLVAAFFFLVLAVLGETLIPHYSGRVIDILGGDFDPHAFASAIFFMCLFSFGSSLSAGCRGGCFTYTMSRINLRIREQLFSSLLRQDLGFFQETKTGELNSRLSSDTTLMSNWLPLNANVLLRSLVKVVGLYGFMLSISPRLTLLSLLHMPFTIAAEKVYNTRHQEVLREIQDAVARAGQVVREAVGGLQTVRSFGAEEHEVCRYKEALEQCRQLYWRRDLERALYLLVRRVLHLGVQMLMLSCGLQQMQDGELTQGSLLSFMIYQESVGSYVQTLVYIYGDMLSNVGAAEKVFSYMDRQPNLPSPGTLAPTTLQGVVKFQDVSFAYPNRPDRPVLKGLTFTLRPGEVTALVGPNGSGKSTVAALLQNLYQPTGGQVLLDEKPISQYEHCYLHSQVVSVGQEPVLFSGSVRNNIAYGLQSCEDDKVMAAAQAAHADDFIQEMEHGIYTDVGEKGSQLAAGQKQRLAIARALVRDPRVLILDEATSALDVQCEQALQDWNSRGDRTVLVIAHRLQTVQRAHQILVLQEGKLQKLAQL

[5] = biological target: T5, HeLa cell extract proteins (Homo sapiens, UniProt P53999)
T5 construct: endogenous in cells; host or cells: HeLa cell extract

[6] = biological target: T6, HeLa cell extract proteins (Homo sapiens, UniProt P25789)
T6 construct: endogenous in cells; host or cells: HeLa cell extract
T6 sequence (P25789 1-261): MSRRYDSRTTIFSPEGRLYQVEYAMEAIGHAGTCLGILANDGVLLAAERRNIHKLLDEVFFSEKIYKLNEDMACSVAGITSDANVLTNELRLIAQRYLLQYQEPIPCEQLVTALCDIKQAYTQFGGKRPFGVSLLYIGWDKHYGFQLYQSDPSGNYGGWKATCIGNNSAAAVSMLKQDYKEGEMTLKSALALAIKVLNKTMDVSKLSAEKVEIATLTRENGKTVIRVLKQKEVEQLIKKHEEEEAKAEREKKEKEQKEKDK

[7] = biological target: T7, HeLa cell extract proteins (Homo sapiens, UniProt P18206)
T7 construct: endogenous in cells; host or cells: HeLa cell extract
T7 sequence (P18206 1-1134): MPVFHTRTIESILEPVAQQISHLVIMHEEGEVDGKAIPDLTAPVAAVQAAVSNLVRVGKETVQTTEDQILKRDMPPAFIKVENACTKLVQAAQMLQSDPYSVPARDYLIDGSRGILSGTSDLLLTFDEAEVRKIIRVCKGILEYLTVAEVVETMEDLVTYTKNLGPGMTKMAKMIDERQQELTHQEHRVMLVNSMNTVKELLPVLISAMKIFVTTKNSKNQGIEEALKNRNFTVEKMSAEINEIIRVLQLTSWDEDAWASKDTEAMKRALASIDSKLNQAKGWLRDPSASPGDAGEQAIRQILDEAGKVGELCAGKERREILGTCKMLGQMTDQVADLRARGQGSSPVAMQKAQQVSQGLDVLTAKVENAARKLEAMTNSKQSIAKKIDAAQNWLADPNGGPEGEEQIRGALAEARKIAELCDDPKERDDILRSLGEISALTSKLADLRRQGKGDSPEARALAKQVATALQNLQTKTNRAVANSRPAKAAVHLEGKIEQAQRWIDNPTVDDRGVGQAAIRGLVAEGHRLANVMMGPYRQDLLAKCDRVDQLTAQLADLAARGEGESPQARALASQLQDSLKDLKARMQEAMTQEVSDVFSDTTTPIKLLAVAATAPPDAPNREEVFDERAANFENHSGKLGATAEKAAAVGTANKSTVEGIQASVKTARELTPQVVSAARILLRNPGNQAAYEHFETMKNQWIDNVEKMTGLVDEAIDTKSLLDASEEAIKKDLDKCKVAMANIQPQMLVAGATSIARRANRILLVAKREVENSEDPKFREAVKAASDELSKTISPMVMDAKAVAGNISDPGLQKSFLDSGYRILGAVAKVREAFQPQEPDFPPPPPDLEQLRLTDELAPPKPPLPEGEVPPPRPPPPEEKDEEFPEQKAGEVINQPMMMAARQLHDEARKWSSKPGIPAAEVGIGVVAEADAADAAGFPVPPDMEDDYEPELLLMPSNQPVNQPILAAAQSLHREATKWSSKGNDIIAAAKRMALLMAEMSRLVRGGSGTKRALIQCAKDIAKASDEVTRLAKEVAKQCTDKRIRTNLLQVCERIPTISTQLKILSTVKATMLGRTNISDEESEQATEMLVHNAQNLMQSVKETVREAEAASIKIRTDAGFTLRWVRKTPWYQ

[8] = biological target: T8, HeLa cell extract proteins (Homo sapiens, UniProt P21359)
T8 construct: endogenous in cells; host or cells: HeLa cell extract
T8 sequence (P21359 whole entry): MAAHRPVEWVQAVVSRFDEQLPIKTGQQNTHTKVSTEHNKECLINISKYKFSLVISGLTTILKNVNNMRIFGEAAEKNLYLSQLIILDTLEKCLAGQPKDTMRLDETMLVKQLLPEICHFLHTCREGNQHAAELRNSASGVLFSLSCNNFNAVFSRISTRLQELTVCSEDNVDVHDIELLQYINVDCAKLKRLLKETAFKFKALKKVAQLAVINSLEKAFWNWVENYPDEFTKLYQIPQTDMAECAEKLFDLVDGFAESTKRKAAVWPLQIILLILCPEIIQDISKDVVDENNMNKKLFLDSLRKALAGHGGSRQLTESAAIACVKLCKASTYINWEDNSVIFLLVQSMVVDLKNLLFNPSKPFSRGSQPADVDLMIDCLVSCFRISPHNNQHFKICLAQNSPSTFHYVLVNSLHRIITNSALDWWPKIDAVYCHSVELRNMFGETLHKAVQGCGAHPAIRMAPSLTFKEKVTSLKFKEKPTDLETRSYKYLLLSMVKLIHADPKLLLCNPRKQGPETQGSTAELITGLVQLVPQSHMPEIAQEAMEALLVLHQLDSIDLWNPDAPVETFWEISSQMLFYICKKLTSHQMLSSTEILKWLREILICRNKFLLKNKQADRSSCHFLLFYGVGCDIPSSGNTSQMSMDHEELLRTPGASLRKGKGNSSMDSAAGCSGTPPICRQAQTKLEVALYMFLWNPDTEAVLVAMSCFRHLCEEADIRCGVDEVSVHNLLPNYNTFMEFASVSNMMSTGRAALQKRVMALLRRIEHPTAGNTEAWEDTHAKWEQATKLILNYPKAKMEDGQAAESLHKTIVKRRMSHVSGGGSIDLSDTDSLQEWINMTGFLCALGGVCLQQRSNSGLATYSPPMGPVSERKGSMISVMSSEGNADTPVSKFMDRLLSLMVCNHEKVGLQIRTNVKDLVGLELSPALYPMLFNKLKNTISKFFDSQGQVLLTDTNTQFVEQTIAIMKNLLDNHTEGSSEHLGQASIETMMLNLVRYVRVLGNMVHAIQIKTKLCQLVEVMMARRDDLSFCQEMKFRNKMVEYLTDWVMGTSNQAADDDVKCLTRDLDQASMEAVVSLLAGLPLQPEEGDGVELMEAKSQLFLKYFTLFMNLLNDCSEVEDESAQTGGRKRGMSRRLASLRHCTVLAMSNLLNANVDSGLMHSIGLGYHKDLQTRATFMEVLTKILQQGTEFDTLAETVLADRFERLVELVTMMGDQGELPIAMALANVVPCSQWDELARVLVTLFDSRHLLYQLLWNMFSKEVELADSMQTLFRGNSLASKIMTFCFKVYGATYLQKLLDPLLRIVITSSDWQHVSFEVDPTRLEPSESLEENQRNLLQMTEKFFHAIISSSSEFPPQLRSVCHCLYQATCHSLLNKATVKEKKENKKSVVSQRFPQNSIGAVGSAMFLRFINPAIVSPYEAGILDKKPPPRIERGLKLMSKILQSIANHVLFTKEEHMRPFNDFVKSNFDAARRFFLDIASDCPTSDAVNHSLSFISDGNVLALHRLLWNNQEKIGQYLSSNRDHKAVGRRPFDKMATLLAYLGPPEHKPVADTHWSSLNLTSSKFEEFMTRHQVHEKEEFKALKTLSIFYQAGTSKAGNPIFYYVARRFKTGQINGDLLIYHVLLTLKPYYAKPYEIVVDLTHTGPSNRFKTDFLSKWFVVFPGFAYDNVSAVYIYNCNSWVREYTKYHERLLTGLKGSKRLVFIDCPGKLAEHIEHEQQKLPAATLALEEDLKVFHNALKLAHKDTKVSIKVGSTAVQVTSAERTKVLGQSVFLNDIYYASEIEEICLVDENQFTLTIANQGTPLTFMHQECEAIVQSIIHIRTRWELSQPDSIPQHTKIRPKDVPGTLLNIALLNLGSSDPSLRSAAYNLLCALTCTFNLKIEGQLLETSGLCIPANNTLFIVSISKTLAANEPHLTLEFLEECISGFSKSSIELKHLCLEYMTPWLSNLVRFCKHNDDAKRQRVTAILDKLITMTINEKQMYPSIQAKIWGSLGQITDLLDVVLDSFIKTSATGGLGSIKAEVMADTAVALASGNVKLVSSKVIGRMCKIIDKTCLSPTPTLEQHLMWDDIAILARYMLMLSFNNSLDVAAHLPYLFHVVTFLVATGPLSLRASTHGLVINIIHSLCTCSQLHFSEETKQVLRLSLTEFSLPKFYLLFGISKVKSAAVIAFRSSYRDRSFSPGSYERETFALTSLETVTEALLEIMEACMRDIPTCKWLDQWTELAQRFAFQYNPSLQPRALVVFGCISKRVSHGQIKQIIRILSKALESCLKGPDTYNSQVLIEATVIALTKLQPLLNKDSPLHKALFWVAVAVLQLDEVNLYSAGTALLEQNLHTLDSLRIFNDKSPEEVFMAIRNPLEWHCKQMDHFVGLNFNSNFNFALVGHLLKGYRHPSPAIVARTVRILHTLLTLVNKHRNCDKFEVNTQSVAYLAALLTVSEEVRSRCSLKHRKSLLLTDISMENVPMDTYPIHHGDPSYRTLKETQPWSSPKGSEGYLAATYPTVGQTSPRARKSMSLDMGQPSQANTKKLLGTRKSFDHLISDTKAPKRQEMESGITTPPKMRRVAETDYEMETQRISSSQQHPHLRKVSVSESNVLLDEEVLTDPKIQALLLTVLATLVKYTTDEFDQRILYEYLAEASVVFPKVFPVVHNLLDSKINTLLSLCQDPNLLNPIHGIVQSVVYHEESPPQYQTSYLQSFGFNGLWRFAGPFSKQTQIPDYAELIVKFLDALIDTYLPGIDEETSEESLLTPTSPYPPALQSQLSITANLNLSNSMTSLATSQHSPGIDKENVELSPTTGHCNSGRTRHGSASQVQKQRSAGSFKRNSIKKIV

T1 sequence (Q96P70 whole entry): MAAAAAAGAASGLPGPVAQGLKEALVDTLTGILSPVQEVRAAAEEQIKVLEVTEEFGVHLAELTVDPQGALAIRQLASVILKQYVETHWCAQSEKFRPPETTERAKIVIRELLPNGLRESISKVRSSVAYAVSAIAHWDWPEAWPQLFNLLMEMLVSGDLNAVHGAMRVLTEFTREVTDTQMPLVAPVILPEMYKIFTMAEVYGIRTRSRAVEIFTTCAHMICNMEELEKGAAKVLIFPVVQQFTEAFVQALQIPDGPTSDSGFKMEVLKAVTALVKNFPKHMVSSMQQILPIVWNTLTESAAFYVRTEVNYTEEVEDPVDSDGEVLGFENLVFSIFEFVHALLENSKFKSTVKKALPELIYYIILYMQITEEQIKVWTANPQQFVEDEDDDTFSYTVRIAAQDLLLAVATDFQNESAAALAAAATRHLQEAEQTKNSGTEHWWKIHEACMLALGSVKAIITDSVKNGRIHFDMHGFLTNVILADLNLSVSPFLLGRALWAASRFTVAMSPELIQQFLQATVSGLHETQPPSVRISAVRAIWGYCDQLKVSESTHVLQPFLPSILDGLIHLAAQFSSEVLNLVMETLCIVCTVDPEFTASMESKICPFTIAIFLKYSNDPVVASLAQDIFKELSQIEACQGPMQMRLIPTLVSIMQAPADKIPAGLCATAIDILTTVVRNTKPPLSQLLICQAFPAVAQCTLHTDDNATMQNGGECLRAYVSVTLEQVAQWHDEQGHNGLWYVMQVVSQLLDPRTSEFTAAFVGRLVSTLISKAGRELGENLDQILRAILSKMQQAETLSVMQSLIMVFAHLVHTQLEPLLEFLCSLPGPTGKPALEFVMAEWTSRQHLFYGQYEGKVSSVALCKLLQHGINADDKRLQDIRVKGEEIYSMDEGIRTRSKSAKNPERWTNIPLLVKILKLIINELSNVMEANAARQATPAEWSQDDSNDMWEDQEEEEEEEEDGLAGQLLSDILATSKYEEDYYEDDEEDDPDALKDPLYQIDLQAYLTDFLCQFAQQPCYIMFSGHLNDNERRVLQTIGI

Row | SMILES | fold changes relative to vehicle control ([1]; HeLa, protein IPO9) | fold changes relative to vehicle control ([2]; HeLa, protein GNB2L1) | fold changes relative to vehicle control ([3]; HeLa, protein SHMT2) | fold changes relative to vehicle control ([4]; HeLa, captured protein TAP2) | fold changes relative to vehicle control ([5]; HeLa, protein SUB1) | fold changes relative to vehicle control ([6]; HeLa, captured protein PSMA4) | fold changes relative to vehicle control ([7]; protein VCL, HeLa) | fold changes relative to vehicle control ([8]; HeLa, protein NF1) | fold changes relative to vehicle control ([1]; captured protein IPO9, HeLa) | fold changes relative to vehicle control ([4]; captured protein TAP2, HeLa) | fold changes relative to vehicle control ([5]; protein SUB1, HeLa) | fold changes relative to vehicle control ([6]; protein PSMA4, HeLa) | fold changes relative to vehicle control ([8]; protein NF1, HeLa) | further results
1 | Nc1nc2c(c(=O)[nH]1)N(C=O)C(CNc1ccc(C(=O)N[C@@H](CCC(=O)O)C(=O)O)cc1)CN2 (some centres unmarked) [LEU, leucovorin] | 0.87 | 1.08 | 1.01 | 1.11 | 0.7 | 1.05 | 0.98 | 0.96 | – | – | – | – | – | –
2 | NCCCNc1ccc(C(=O)NC(CCC(=O)O)C(=O)O)cc1 (centres unmarked) [compound 7] | 0.94 | 0.99 | 1.02 | 1.09 | 0.87 | 1.03 | 0.96 | 1.11 | – | – | – | – | – | –
3 | CCCCCCOc1cccc(Cc2cnc(N)nc2N)c1 [compound 2] | – | 1.19 | 1.53 | – | – | – | 1.8 | – | 1.14 | 0.98 | 0.99 | 1.19 | 1.15 | –
4 | CCCCCCOc1ccc(Cc2cnc(N)nc2N)cc1 [compound 1] | – | 1.12 | 0.8 | – | – | – | 1.12 | – | 0.89 | 1.01 | 0.91 | 1.1 | 0.84 | –
5 | Nc1nc2cccc(-c3ccccc3)c2n1Cc1ccc(Cl)c(Cl)c1 [compound 3] | – | 1.12 | 0.92 | – | – | – | 0.99 | – | 1.07 | 1.06 | 1.13 | 1.06 | 1.06 | –
6 | NCCOCCOCC(=O)Nc1nc2ncc(CNc3ccc(C(=O)NC(CCC(=O)O)C(=O)O)cc3)nc2c(=O)[nH]1 (centres unmarked) [compound 6] | 1 | 1.12 | 1.3 | 1.18 | 1.03 | 1.06 | 1.21 | 1.18 | – | – | – | – | – | –
7 | Nc1nc2[nH]cc(CCc3ccc(C(=O)N[C@@H](CCC(=O)O)C(=O)O)cc3)c2c(=O)[nH]1 [PTX, pemetrexed] | – | – | – | – | – | – | – | – | – | – | – | – | – | fold changes relative to vehicle control [1]: 0.91; fold changes relative to vehicle control [2]: 1.08; fold changes relative to vehicle control [3]: 1.13; fold changes relative to vehicle control [4]: 0.89; fold changes relative to vehicle control [5]: 1.08; fold changes relative to vehicle control [6]: 1.02; fold changes relative to vehicle control [7]: 1.06; fold changes relative to vehicle control [8]: 1.04
